Measured values as given in PMC3336786 (The FASEB Journal, 2012).
Residue numbers refer to the chain shown, from its start. “And” between values parts separate entries of the source, which are not always exact repeats. Equal entries are not always repeated. Where two headings read alike, the source gives them in different places.

Assays:
[1] = target: T1, α1V2'Aβ2 (Homo sapiens, UniProt P14867+P47870, V284A); type: cell-based
T1 sequence (P14867 28-456 V284A): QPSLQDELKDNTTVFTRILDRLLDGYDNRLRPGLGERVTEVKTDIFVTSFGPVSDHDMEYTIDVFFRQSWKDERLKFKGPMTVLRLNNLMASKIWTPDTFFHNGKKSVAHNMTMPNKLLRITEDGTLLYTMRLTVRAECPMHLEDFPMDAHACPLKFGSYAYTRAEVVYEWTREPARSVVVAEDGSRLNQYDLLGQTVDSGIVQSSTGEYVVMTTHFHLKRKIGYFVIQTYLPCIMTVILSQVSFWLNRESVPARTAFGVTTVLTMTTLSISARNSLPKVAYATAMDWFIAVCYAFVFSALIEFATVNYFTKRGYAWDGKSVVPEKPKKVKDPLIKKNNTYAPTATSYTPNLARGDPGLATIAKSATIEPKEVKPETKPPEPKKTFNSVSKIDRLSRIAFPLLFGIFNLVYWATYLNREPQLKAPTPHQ
T1 sequence (P47870 26-512): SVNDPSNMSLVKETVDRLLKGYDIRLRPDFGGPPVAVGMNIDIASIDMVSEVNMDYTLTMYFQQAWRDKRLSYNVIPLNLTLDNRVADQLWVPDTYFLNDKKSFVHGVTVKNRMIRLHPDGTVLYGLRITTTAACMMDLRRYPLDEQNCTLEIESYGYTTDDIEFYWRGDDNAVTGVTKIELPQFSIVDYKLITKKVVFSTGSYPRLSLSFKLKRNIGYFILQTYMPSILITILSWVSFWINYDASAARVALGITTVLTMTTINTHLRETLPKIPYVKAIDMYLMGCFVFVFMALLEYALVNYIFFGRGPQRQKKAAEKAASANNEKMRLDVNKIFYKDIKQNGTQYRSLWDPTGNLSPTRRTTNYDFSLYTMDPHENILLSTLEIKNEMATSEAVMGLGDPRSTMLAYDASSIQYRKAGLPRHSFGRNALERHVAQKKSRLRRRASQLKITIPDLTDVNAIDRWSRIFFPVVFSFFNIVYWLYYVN

[2] = target: T2, RDL (Drosophila melanogaster, UniProt P25123); type: cell-based
T2 sequence (P25123 45-606): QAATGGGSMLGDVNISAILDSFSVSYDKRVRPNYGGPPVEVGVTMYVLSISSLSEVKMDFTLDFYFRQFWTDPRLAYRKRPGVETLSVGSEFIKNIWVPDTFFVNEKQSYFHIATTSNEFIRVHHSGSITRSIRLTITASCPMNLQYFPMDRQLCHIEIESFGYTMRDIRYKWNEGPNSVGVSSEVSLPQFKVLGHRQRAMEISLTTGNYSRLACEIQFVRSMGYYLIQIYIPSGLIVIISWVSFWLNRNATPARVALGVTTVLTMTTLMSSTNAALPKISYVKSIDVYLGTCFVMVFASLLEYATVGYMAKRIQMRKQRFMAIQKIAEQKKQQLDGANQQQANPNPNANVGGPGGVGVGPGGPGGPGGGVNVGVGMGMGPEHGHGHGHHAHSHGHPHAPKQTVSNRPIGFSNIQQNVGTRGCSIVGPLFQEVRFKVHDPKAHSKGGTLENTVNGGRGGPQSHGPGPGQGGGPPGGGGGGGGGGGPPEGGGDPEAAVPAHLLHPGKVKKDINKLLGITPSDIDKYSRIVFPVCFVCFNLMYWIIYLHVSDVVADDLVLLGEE

[3] = target: T3, human α1β2 GABAA receptors (Homo sapiens, UniProt P14867+P47870); test: Two-electrode voltage clamp of α1β2 GABAA receptors in Xenopus oocytes; type: cell-based; conditions: for IC50: IC50, inhibition of GABA EC50 response
T3 sequence (P14867 28-456): T1 sequence (P14867 28-456 V284A) with A257V
T3 sequence (P47870 26-512): T1 sequence (P47870 26-512)

[4] = target: T4, RDLT6'V (Drosophila melanogaster, UniProt P25123, T305V); test: Two-electrode voltage clamp of RDLT6'V mutant receptors in Xenopus oocytes; type: cell-based
T4 sequence (P25123 45-606 T305V): T2 sequence (P25123 45-606) with T261V

[5] = target: α1β2γ2 GABAA receptors (Homo sapiens, UniProt P14867+P18507+P47870); test: Two-electrode voltage clamp of α1β2γ2 GABAA receptors in Xenopus oocytes; type: cell-based
Chain of α1β2γ2 GABAA receptors (P14867 28-456, one chain of several): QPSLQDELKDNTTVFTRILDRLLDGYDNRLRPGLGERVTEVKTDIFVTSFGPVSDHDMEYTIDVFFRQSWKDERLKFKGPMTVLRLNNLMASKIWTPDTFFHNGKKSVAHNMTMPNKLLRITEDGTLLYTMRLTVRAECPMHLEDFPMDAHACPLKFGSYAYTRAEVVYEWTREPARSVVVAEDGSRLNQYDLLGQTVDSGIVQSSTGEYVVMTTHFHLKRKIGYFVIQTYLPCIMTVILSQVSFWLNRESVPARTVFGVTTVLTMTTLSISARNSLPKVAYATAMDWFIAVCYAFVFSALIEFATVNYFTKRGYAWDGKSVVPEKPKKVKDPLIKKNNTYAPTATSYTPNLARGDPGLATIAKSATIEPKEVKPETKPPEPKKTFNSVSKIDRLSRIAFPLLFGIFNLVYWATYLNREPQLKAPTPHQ
Chain of α1β2γ2 GABAA receptors (P18507 40-475, one chain of several): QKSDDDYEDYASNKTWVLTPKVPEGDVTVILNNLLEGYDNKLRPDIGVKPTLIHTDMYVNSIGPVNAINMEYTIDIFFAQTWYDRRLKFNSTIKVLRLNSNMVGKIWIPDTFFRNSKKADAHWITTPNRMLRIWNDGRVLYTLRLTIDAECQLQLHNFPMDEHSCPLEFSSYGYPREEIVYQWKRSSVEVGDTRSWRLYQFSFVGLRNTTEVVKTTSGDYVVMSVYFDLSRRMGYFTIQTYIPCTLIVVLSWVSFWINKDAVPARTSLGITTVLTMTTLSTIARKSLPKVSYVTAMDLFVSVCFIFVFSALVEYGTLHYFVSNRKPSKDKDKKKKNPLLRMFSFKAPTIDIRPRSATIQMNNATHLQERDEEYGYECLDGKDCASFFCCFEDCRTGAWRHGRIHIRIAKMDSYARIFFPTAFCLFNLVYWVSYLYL

[6] = target: α1V2'Aβ2γ2 (Homo sapiens, UniProt P14867+P18507+P47870, V284A); type: cell-based
Chain of α1V2'Aβ2γ2 (P18507 40-475, one chain of several): as above

[7] = target: T5, RDLA2'V (Drosophila melanogaster, UniProt P25123, A301V); test: cell-based; type: cell-based
T5 sequence (P25123 45-606 A301V): T2 sequence (P25123 45-606) with A257V

[8] = test system: humans; conditions: cited from earlier work
[9] = test system: Canton-S adult D. melanogaster; test: Coated vial bioassay, wild-type; type: in vivo; conditions: for LD50: coated vial
[10] = test system: dieldrin-resistant (Rdl) adult D. melanogaster; test: Coated vial bioassay, dieldrin-resistant; type: in vivo; conditions: flies with A2'S mutation; ginkgolides up to 5000 ppm (limited by solubility)
[11] = concentration-inhibition curve at GABA EC50

Molecule | nH (Hill coefficient) [1, 11] | nH (Hill coefficient) [2, 11] | IC50 [3] [nM] | nH (Hill coefficient) [3, 11] | IC50 [5] [nM] | nH (Hill coefficient) [5, 11] | nH (Hill coefficient) [6, 11] | LD50 ([9]; 24 h) [mg/mL] | LD50 ([9]; 48 h) [mg/mL] | LD50 ([9]; 72 h) [mg/mL] | nH (Hill coefficient) [7, 11] | also measured
NCCCC(=O)O [GABA, γ-aminobutyric acid, reference compound] | – | – | – | – | – | – | – | – | – | – | – | nH (Hill coefficient) ([1]; GABA concentration-response): 1.14 ± 0.12; increase in GABA sensitivity, α1 2' mutation vs wild type ([1]; α1V2'A-containing α1β2 and α1β2γ2 receptors): 20–50 fold; nH (Hill coefficient) ([2]; GABA concentration-response): 1.8 and 1.80 ± 0.20; nH (Hill coefficient) ([3]; GABA concentration-response): 1.43 ± 0.18; nH (Hill coefficient) ([4]; GABA concentration-response): 1.44 ± 0.29; nH (Hill coefficient) ([5]; GABA concentration-response): 1.64 ± 0.16; nH (Hill coefficient) ([6]; GABA concentration-response): 1.10 ± 0.11; nH (Hill coefficient) ([7]; GABA concentration-response): 2.20 ± 0.02
N#Cc1nn(-c2c(Cl)cc(C(F)(F)F)cc2Cl)c(N)c1[S+]([O-])C(F)(F)F (stereo not shown) [fipronil] | – | – | – | – | – | – | – | – | – | – | – | U.S. Environmental Protection Agency ranking [8]: moderately toxic
C[C@@H]1C(=O)O[C@H]2C[C@@]34[C@H]5C[C@@H](C(C)(C)C)[C@]36[C@@H](OC(=O)[C@@H]6O)O[C@@]4(C(=O)O5)[C@]21O [GA, ginkgolide A] | 0.87 ± 0.14 | 1.13 ± 0.18 | 15800 | 0.65 ± 0.08 | 38900 | 0.49 ± 0.07 | 0.86 ± 0.10 | 0.345 | 0.063 | 0.019 | 1.48 ± 0.19 | IC50 ([2]; IC50, inhibition of GABA EC50 response, second stable level of inhibition): 3 nM; IC50 ([2]; IC50, inhibition of GABA-evoked RDL currents, as printed in text and Fig. 6): 3.1 nM; IC50 ([2]; pIC50, inhibition of GABA EC50 response, second stable level of inhibition): 3.24 nM
CC(C)(C)[C@]1(O)CC2OC(=O)CC23C(=O)OC2OC(=O)[C@H](O)C231 (stereo partly shown) [BB, bilobalide] | 1.06 ± 0.10 | 0.89 ± 0.09 | 9330 | 0.85 ± 0.10 | 22900 | 0.68 ± 0.10 | 1.16 ± 0.20 | 0.331 | 0.009 | 0.006 | 1.85 ± 0.21 | IC50 ([1]; IC50, inhibition of GABA EC50 response): 2040 nM; IC50 [2]: 316 nM; IC50 [6]: 3550 nM
ginkgolide B [GB] | 1.13 ± 0.09 | 1.43 ± 0.14 | – | 0.94 ± 0.06 | – | 0.61 ± 0.06 | 1.43 ± 0.29 | 0.171 | 0.031 | 0.010 | 1.02 ± 0.20 | nH (Hill coefficient) ([4]; concentration-inhibition curve): 1.00 ± 0.70
ClC1=C(Cl)[C@]2(Cl)[C@@H]3[C@@H]4C[C@@H]([C@H]5O[C@@H]45)[C@@H]3[C@@]1(Cl)C2(Cl)Cl [dieldrin, reference compound] | – | – | – | – | – | – | – | – | – | – | – | mortality / toxicity (in words) [10]: no significant mortality up to 72 h; LD50 ([9]; 24 h, wild-type flies): 0.002 mg/mL; LD50 ([9]; 48 h, wild-type flies): 0.002 mg/mL; LD50 ([9]; 72 h, wild-type flies): 0.0017 mg/mL; mortality / toxicity (in words) ([9]; wild-type (susceptible) flies): highly effective in killing
